Data published in ChEMBL document CHEMBL1145484, “Evaluation of the metS and murB loci for antibiotic discovery using targeted antisense RNA expression analysis in Bacillus anthracis” (2007).
Values after ≈ are worked out from the molar mass of the structure shown.

System: Bacillus anthracis
Experiment: Antibacterial activity against Bacillus anthracis UM23C1-1
Format: functional

With `O=C(O)c1ccc(OCc2nc3ccccc3[nH]2)c(OCc2ccc(Cl)cc2Cl)c1` the MIC was 2 µg/mL (≈ 4.51 µM).
